# US4746736A, “Carbapenem antibiotics” (priority 1986, dated 1988)
# Where a name gives a salt, the structure may show the parent alone. Read-outs that look alike come from different tables or passages of the source.
# Tests used:
# [1] = test system: S. pneumoniae A-9585; test: In vitro MIC by tube dilution, S. pneumoniae A-9585; type: cell-based
# [2] = test system: S. pyogenes A9604; test: In vitro MIC by tube dilution, S. pyogenes A9604; type: cell-based
# [3] = test system: S. aureus A-9537; test: In vitro MIC by tube dilution, S. aureus A-9537; type: cell-based
# [4] = test system: S. aureus A-9606 (Pen-res.); test: In vitro MIC by tube dilution, S. aureus A-9606 (Pen-res.); type: cell-based; details: S. aureus A-9606 (Pen-res)
# [5] = test system: S. faecalis A20688; test: In vitro MIC by tube dilution, S. faecalis A20688; type: cell-based
# [6] = test system: E. coli A15119; test: In vitro MIC by tube dilution, E. coli A15119; type: cell-based; details: E. coli A15119
# [7] = test system: E. coli A20341-1; test: In vitro MIC by tube dilution, E. coli A20341-1; type: cell-based
# [8] = test system: K. pneumoniae A-9664; test: In vitro MIC by tube dilution, K. pneumoniae A-9664; type: cell-based
# [9] = test system: K. pneumoniae A20468; test: In vitro MIC by tube dilution, K. pneumoniae A20468; type: cell-based
# [10] = test system: P. mirabilis A-9900; test: In vitro MIC by tube dilution, P. mirabilis A-9900; type: cell-based
# [11] = test system: P. morganii A15153; test: In vitro MIC by tube dilution, P. morganii (M. morganii) A15153; type: cell-based
# [12] = test system: P. rettgeri A22424; test: In vitro MIC by tube dilution, P. rettgeri A22424; type: cell-based
# [13] = test system: S. marcescens A20019; test: In vitro MIC by tube dilution, S. marcescens A20019; type: cell-based
# [14] = test system: E. cloacae A-9656; test: In vitro MIC by tube dilution, E. cloacae A-9656; type: cell-based
# [15] = test system: P. aeruginosa A-9843A; test: In vitro MIC by tube dilution, P. aeruginosa A-9843A; type: cell-based; details: P. aeruginosa A-9843a
# [16] = test system: H. influenzae A-9833; test: In vitro MIC by tube dilution, H. influenzae A-9833; type: cell-based; details: Haemophilus influenzae, A9833
# [17] = test system: H. influenzae A21518; test: In vitro MIC by tube dilution, H. influenzae A21518; type: cell-based; details: Haemophilus influenzae
# [18] = test system: E. cloacae A-9659; test: In vitro MIC by tube dilution, E. cloacae A-9659; type: cell-based
# [19] = test system: P. vulgaris A21559; test: In vitro MIC by tube dilution, P. vulgaris A21559; type: cell-based; details: P. vulgaris A21559
# [20] = test system: P. aeruginosa A21213; test: In vitro MIC by tube dilution, P. aeruginosa A21213; type: cell-based; details: P. aeruginosa A21213
# [21] = test system: P. aeruginosa A-9843a; type: in vivo; details: P. aeruginosa A9843A, mice, i.m.
# Description: The PD50 (dose in mg/kg required to give protection to 50% of the infected mice) is indicated.
# Treatment Schedule: Except for E. coli A15119 and K. pneumoniae A9964,
# mice were treated i.m. with drugs 0 and 2 hours postinfection.
# 5 mice per dose were used for each test
# The PD50 (dose in mg/kg) required to give protection to 50% of the infected mice is indicated.
# [22] = Blood levels in mice after intramuscular administration; details: 20 mg/kg i.m., mice (compiled table)
# Excerpt: Compounds were solubilized in 0.1 M phosphate buffer pH 7.
# Values are from a single test; 4 mice used per compound.
# Compounds were solubilized in 0.1 M phosphate buffer, pH 7.
# Values based on a single test; 4 mice per compound.
# [23] = test system: H. influenzae A20178; test: In vitro MIC by tube dilution, H. influenzae A20178; type: cell-based; details: Haemophilus influenzae
# [24] = test system: H. influenzae A21522; test: In vitro MIC by tube dilution, H. influenzae A21522; type: cell-based; details: Haemophilus influenzae
# [25] = Streptococcus pneumoniae, A9585, S. pneumoniae A-9585, read-out: MIC
# [26] = Streptococcus pyogenes, A9604, S. pyogenes A-9604, read-out: MIC
# [27] = Staphylococcus aureus, A9537, S. aureus A-9537, no serum, read-out: MIC
# [28] = Staphylococcus aureus, read-out: MIC
# [29] = Pseudomonas aeruginosa, A9843A, read-out: MIC
molecule,measurement,setting,value
"Cc1ccc[n+](C)c1CSC1=C(C(=O)[O-])N2C(=O)[C@H]([C@@H](C)O)[C@H]2C1 [Example 7, 3-(N-Methyl-3-methylpyridine-2-methanethio)-6α-[1-(R)-hydroxyethyl]-7-oxo-1-azabicyclo(3.2.0)hept-2-ene-2-carboxylate]",MIC,[1]; [25],0.004 µg/mL
same,MIC,[2]; [26],0.004 µg/mL
same,MIC,"[3]; Staphylococcus aureus, A9537, S. aureus A-9537 +50% serum, read-out: MIC",0.03 µg/mL
same,MIC,[3]; [27],0.008 µg/mL
same,MIC,[4]; [28],0.016 µg/mL
same,MIC,"[5]; Enterococcus faecalis, A20688, S. faecalis A20688, read-out: MIC",0.13 µg/mL
same,MIC,"[6]; Escherichia coli, read-out: MIC",0.004 µg/mL
same,MIC,"[7]; Escherichia coli, A203411, read-out: MIC",0.004 µg/mL
same,MIC,"[8]; Klebsiella pneumoniae, A9664, read-out: MIC",0.016 µg/mL
same,MIC,"[9]; Klebsiella pneumoniae, A20468, K. pneumoniae A20468, read-out: MIC",0.016 µg/mL
same,MIC,"[10]; Proteus mirabilis, A9900, P. mirabilis A-9900, read-out: MIC",0.016 µg/mL
same,MIC,"[11]; Morganella morganii, A15153, M. morganii A15153, read-out: MIC",0.016 µg/mL
same,MIC,"[12]; Providencia rettgeri, A22424, P. rettgeri A22424, read-out: MIC",0.06 µg/mL
same,MIC,"[13]; Serratia marcescens, read-out: MIC",0.008 µg/mL
same,MIC,"[14]; Enterobacter cloacae, A9656, E. cloacae A-9656, read-out: MIC",0.016 µg/mL
same,MIC,[15]; [29],1 µg/mL
same,MIC,[16],> 32 µg/mL
same,MIC,[17],> 32 µg/mL
same,MIC,"[18]; Enterobacter cloacae, A9659, E. cloacae A-9659, read-out: MIC",0.016 µg/mL
"3-[4-(N,N-dimethyl-1,2,3-triazolium)methylthio]-6α-[1-(R)-hydroxyethyl]-7-oxo-1-azabicyclo(3.2.0)hept-2-ene-2-carboxylate [Example 15 ""B""]",MIC,[1]; S. pneumoniae A-9585,0.0005 µg/mL
same,MIC,[2]; S. pyogenes A-9604,0.001 µg/mL
same,MIC,[3]; S. aureus A-9537 +50% serum,0.016 µg/mL
same,MIC,"[3]; S. aureus A-9537, no serum",0.004 µg/mL
same,MIC,[4],0.008 µg/mL
same,MIC,[5]; S. faecalis A20688,0.5 µg/mL
same,MIC,[6],0.008 µg/mL
same,MIC,[7],0.008 µg/mL
same,MIC,[8],0.03 µg/mL
same,MIC,[9]; K. pneumoniae A20468,0.016 µg/mL
same,MIC,[10]; P. mirabilis A-9900,0.03 µg/mL
same,MIC,[19],0.008 µg/mL
same,MIC,[11]; M. morganii A15153,0.06 µg/mL
same,MIC,[12]; P. rettgeri A22424,0.13 µg/mL
same,MIC,[13],0.016 µg/mL
same,MIC,[14]; E. cloacae A-9656,0.03 µg/mL
same,MIC,[15],2 µg/mL
same,MIC,[20],0.13 µg/mL
same,MIC,[18]; E. cloacae A-9659,0.016 µg/mL
same,PD50/treatment,[21],0.89 mg/kg
same,AUC,[22],7400 ng·h/mL
same,Cmax,[22],15900 ng/mL
"C[C@@H](O)[C@H]1C(=O)N2C(C(=O)[O-])=C(SCc3cc[n+](C)cc3)C[C@H]12 [Example 1, 1-Methyl-4-[2-carboxy-6α-[1(R)-hydroxyethyl]-7-oxo-1-azabicyclo[3.2.0]hept-2-en-3-thiomethyl]pyridinium hydroxide inner salt]",MIC,[23],32 µg/mL
same,MIC,[24],8 µg/mL
"CCC[n+]1ccc(CSC2=C(C(=O)[O-])N3C(=O)[C@H]([C@@H](C)O)[C@H]3C2)cc1 [Example 6, 3-(1-Propylpyridine-4-yl-methanethio)-6α-[1-(R)-hydroethyl]-7-oxo-1-azabicyclo(3.2.0)hept-2-ene-2-carboxylate]",MIC,[1]; [25],0.004 µg/mL
same,MIC,[2]; [26],0.004 µg/mL
same,MIC,[3]; [27],0.03 µg/mL
same,MIC,[4]; [28],0.03 µg/mL
same,MIC,[15]; [29],8 µg/mL
same,MIC,[16],> 32 µg/mL
same,MIC,[17],> 32 µg/mL
